Measured values taken from patent publication US4374149A, “α-{[(Arylalkyl)amino]alkyl}-4-hydroxy-3-(lower-alkylsul finyl)benzenemethanols” (Sterling Drug Inc., priority 1978, dated 1983).
Several values for one entry are separate records, joined by “and”; a condition that tells them apart may be missing. Equal values may be shown once. Where a name gives a salt, the structure may show the parent alone. Read-outs that look alike come from different tables or passages of the source.

Key:
Ba++-induced arrhythmia = assay: Conversion of Ba++-induced arrhythmia in rabbits; assay type: in vivo; design: key: active (A); inactive (I)
Method: (§1) The test procedures were carried out as follows.
Adult rabbits or either sex weighing between 1.7 and 2.3 kg. were anesthetized with 30 to 35 mg./kg. Na-pentobarbital i.v. via a marginal ear vein. Monoplar ECG pin electrodes were inserted for a lead II display on a Model 5 Grass Polygraph using standard electrocardiographic procedures. A 23 ga. hypodermic needle, attached via a polyethylene catheter to a 10 cc. syringe, was inserted into the same vein as was used for anesthesia. A BaCl2.2H2 O solution in saline was then infused at a constant volume of 0.2 cc/min. from a Harvard Apparatus Model 600 infusion pump. This infusion was not stopped until termination of the experiment. In some studies barium chloride in distilled water was used without detectable differences. The standard rate of BaCl2.2H2 O infusion was established at 0.3 mg./kg./min. (1.2×10^-6 M/kg./min.), and the concentration was adjusted appropriately in each case to accommodate the weight of the rabbit.
When the desired arrhythmia was established, the test compound was introduced as a water or saline solution into the marginal ear vein of the unused ear. The volume used was between 0.5 and 2.0 cc./kg. and was injected as a bolus over approximately 30 seconds. Deviations from standard vehicle, rate of injection and total volume administered were at the discretion of the operator. The standard initial dose of an unknown compound on the first rabbit was 5×10^-5 M/kg. In general, two to three rabbits were used to determine anti-arrhythmic activity and the dose range of activity; multiple doses were administered. Once activity and dose was indicated, two additional rabbits were employed to confirm anti-arrhythmic activity against a multifocal tachycardia.

hind limb vasculature = assay: Vasodilator activity, perfusion pressure in hind limb vasculature of anesthetized dog; assay type: in vivo; details: for ED50: Canis lupus familiaris, read-out: Vasodilator activity Dog-Leg Perfusion AED50 (approximate intraarterial dose for 50 reduction in perfusion pressure)
Text: Vasodilator activity was judged on the basis of observed reduction in perfusion pressure in the hind limb vasculature of the anesthetized dog determined according to the procedure described by Jandhyala et al., European J. Pharm. 17, 357 (1972), and also on the basis of percent reduction in perfusion pressure as measured in the isolated rabbit ear artery according to the method described by De LaLande et al., Aust. J. Exp. Biol. Med. Sci. 43, 639 (1965).
^c AED50 = approximate intraarterial dose required to cause a 50

[1] = tested on: Ouabain-induced arrhythmia; assay: Conversion of ouabain-induced arrhythmia in dogs; assay type: in vivo, mongrel dogs; design: key: active (A); inactive (I)
Method: as §1
Na-pentobarbital supplements were given i.v. as needed.
Both parameters were printed out on a Grass polygraph.

blood pressure = assay: Antihypertensive activity, sustained lowering of blood pressure, repeated oral medication, unanesthetized trained renal hypertensive dog; assay type: in vivo; details: tid.
Text: Antihypertensive activity was also judged on the basis of sustained reduction of blood pressure observed in the unanesthetized trained renal hypertensive dog following repeated oral medication according to the procedure described by Lape et al., Arch.
^b MED10 = minimum repeated oral daily dose required to effect a

[2] = tested on: isolated rabbit ear artery; assay: Vasodilator activity, perfusion pressure in isolated rabbit ear artery
Summary of the method: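 Percent reduction in perfusion pressure of the isolated rabbit ear artery (De LaLande method) as the vasodilation read-out; vasodilator activity also judged from reduced hind-limb perfusion pressure in the anesthetized dog.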

systolic blood pressure = assay: Antihypertensive activity, reduction in systolic blood pressure, single oral medication, unanesthetized spontaneous hypertensive rat; assay type: in vivo; details: P.O., single dose, unanesthetized SH rat
Method: Antihypertensive activity was determined on the basis of the observed reduction in systolic blood pressure measured according to the method of H. Kersten et al., J. Lab. and Clin. Med. 32, 1090 (1947) following a single oral medication in the unanesthetized spontaneous hypertensive rat described by Okamato et al., Japan Circulation J. 27, 282 (1963).
^a AHD40 = single oral dose required to induce a 40 mm. average

β-adrenergic = β-adrenergic blocking activity, inhibition of isoproterenol-elicited heart rate increase in pentobarbitalized dog; assay type: in vivo; details: i.v.; for Dog β-blockade AED50 (approximate intravenous dose for 50% inhibition of isoproterenol-elicited heart rate increase): pentobarbitalized dog
Method: The β-adrenergic blocking activity was determined in the pentobarbitalized dog as judged by the ability of the test compound to inhibit the elevation in heart rate elicited by a 0.5 mcg./kg. i.v. injection of isoproterenol.
^e AED50 = approximate intravenous dose required to cause 50%

[3] = tested on: histamine-induced bronchoconstriction; assay: β-adrenergic stimulant activity, block of histamine-induced bronchoconstriction in the dog; assay type: in vivo
[4] = Local anesthetic activity (method of Bulbring and Wadja); assay type: in vivo; details: compared with procaine
Method: D. Following a procedure similar to that described in Example 2G but using 2.5 g. (0.0049 mole) of dextrorotatory 4-hydroxy-α-<{[3-(4-methoxyphenyl)-1-methylpropyl]amino}methyl>- 3-(methylthio)benzenemethanol acetate salt (m.p. 124°-126° C., [α]D^25 =+7.7°) and 375 mg. of commercial 40% peracetic acid there was obtained 2.0 g. of 4-hydroxy-α-<{[3-(4-methoxyphenyl)-1-methylpropyl]amino}methyl>-3-(methylsulfinyl)benzenemethanol acetate salt as an amorphous yellow powder [α]D^25 =+4.2° containing a mixture of 4 diastereomeric sulfoxides. […] Exp. Therap. 85, 78 (1945).

papillary muscle = assay: Cardiotonic test procedure IB, isolated cat papillary muscle; details: in vitro
Method: The efficacy of this compound was judged, in vitro, on the basis of percent increase in contractile force in isolated cat atria and papillary muscle and, in vitro, on the basis of percent increase in cardiac contractile force in the intact anesthetized dog. Male cats 0.8 to 1.5 kg. were anethetized with α-chloralose (80 mg./kg. i.p.). The chest was opened and the heart excised. The heart was dipped and shaken in Tyrode's solution for the removal of blood from the cavities. The right ventricle was then slit open and the small and thin (about 1 mm. in diameter and 4 to 7 mm. in length) papillary muscles were dissected out. A silver wire was attached to each of the two ends of the papillary muscle. The ventricular end was attached to a platinum electrode and mounted in a tissue bath containing Tyrode's solution described above. The silver wire on the valvular end of the muscle was attached to a force displacement transducer for the measurement of the force and rate of muscle contraction. The muscle was stimulated at a rate of 3 beats/sec. by suprathreshold rectangular pulses of 5 millisecond duration. The rest of the procedure was continued as described above.

isolated cat atria = assay: Cardiotonic test procedure I, isolated cat atria; details: for Increase in right atrial force / Increase in right atrial rate: in vitro
Method: The efficacy of this compound was judged, in vitro, on the basis of percent increase in contractile force in isolated cat atria and papillary muscle and, in vitro, on the basis of percent increase in cardiac contractile force in the intact anesthetized dog. Male cats weighing from 0.8 to 1.5 kg. were anesthetized with α-chloralose (80 mg./kg. i.p.). The chest was opened, the heart excised and the two atria dissected. A silk suture was tied to each of two opposite sides of the right atrium. One side of the atrium was tied to a glass rod and then mounted in a 50 ml. organ bath filled with Tyrode's solution. […] The transducer was then connected to a Grass polygraph and the force and rate of atrial contraction was recorded continuously. The left atrium was treated similarly using silver wire instead of silk sutures. The silver wire also served as a stimulating electrode. Both atria were mounted in the same bath. The right atrium was beating spontaneously due to the presence of the sinoatrial node, while the left atrium was stimulated electrically at a rate of 3 beats/sec. by suprathreshold rectangular pulses of 5 millisecond duration. The Tyrode's solution bathing the atria was of the following composition (in mM): NaCl 136.87, KCl 5.36, NaH2 PO4 0.41, CaCl2 1.80, MgCl2 6H2 O 1.05, NaHCO3 11.90, glucose 5.55 and EDTA 0.04. […] The preparation was left to equilibrate for one hour before any drug was added. The bathing fluid was changed 3 to 4 times during the equilibration time. At the end of equilibration period, the drug dissolved in a vehicle or the vehicle alone was added to the tissue bath and the full response recorded. The vehicle used was Tyrode' s solution to which, if required, sufficient acid was added to cause solution of the drug. […] Generally, a dose response study of at least 3 doses was done in the same preparation.

[5] = tested on: cardiac contractile force; assay: Cardiotonic test procedure II, intact anesthetized dog; assay type: in vivo, mongrel dogs; details: i.v. infusion 10 mcg./kg./min. over 3 hrs.
Method: The efficacy of this compound was judged, in vitro, on the basis of percent increase in contractile force in isolated cat atria and papillary muscle and, in vitro, on the basis of percent increase in cardiac contractile force in the intact anesthetized dog. The in vivo test procedure used is described as follows: Mongrel dogs of both sexes and varying in weight from 9 to 15 kg. were anesthetized with 30 mg./kg. pentobarbital sodium administered intravenously. The trachea was exposed and cannulated. The tracheal cannula was then attached to a Harvard respiratory pump using room air. The right femoral artery and vein were cannulated. […] The venous cannula was used for the intravenous administration of drugs. Pin electrodes were attached to the right forelimb and left hindlimb. The electrodes were then connected to a Grass polygraph for the continuous recording of the standard limb lead II electrocardiogram. A ventro-dorsal incision at the third inter-costal space was made, the ribs laterally retracted and the pericardium slit open to expose the myocardium. The base of the aorta was dissected and a flow probe was fitted around it. The flow probe was attached to a square wave electromagnetic flowmeter (Carolina Medical Electronics). The flowmeter was then connected to a Grass polygraph for the continuous recording of aortic blood flow. This flow was used as an index of cardiac output (actual cardiac output is aortic blood flow+coronary blood flow). Cardiac contractile force was measured by suturing a Walton-Brodie strain gauge to the wall of the right ventricle. At the end of the surgical procedure, the animal was left to rest and equilibrate for one hour with continuous recording of blood pressure, EKG, cardiac contractile force and aortic blood flow. After the equilibration period, the vehicle or the drug dissolved in the vehicle was administered by intravenous infusion (i.v. inf.), intravenous bolus (i.v. bol.) or intraduodenally (i.d.) and the response of all the parameters measured to drug administration was recorded continuously for different periods of times depending on the route of drug administration. When the route of administration was i.v. inf., the drug was administered until a peak effect was reached and infusion was then maintained for ten minutes. The above-described test systems were standardized using dopamine.

7-day oral LD50 in rats = assay type: in vivo

Compound: CC(=O)O.CC(CCc1ccccc1)NCC(O)c1ccc(O)c([S+](C)[O-])c1 (stereo not drawn) [Example 19C, 4-hydroxy-α-{[(1-methyl-3-phenylpropyl)amino]methyl}-3-(methylsulfinyl)benzenemethanol acetate salt]
- Conversion of Ba++-induced Arrhythmia (Ba++-induced arrhythmia; 2.5 × 10^-6 M/kg.): A
- ED50 (hind limb vasculature; intraarterial, anesthetized dog hind limb): 0.5 mg/kg
- Conversion of Ouabain-induced Arrhythmia ([1]; 5 × 10^-5 M/kg.): A
- Renal Hypertensive Dog MED10 (minimum repeated oral daily dose for sustained lowering of blood pressure of 10% or greater) (blood pressure): > 0.125 mg/kg
- Actual percentage reduction in blood pressure observed at the indicated dose (blood pressure; 0.125 mg./kg.): 0%
- Rabbit Ear Artery vasodilation (percentage reduction in perfusion pressure from control level) ([2]; 5 × 10^-5 M, 50 µM): 50%
- Antihypertensive activity SH Rat AHD40 (single oral dose required to induce a 40 mm. average reduction in systolic blood pressure) (systolic blood pressure): 20.0 mg/kg
- Actual percentage inhibition of heart rate increase above control level observed at the indicated dose (β-adrenergic; 0.025 mg./kg.): 67%
- Dog β-blockade AED50 (approximate intravenous dose for 50% inhibition of isoproterenol-elicited heart rate increase) (β-adrenergic): < 0.025 mg/kg

Compound: COc1ccc(CC(C)NCC(O)c2ccc(O)c([S+](C)[O-])c2)cc1 (stereo not drawn) [Example 1I, 4-hydroxy-α-<{[2-(4-methoxyphenyl)-1-methylethyl]amino}methyl>-3-(methylsulfinyl)benzenemethanol hydrochloride]
- ED50 (hind limb vasculature): 0.25 mg/kg
- Renal Hypertensive Dog MED10 (minimum repeated oral daily dose for sustained lowering of blood pressure of 10% or greater) (blood pressure): 1.25 mg/kg
- Rabbit Ear Artery vasodilation (percentage reduction in perfusion pressure from control level) ([2]; 6.25 × 10^-5 M, 62.5 µM): 53%
- Antihypertensive activity SH Rat AHD40 (single oral dose required to induce a 40 mm. average reduction in systolic blood pressure) (systolic blood pressure): 2.0 mg/kg
- Dog β-blockade AED50 (approximate intravenous dose for 50% inhibition of isoproterenol-elicited heart rate increase) (β-adrenergic): 0.04 mg/kg
- β-adrenergic stimulant activity [3]: ability to block histamine-induced bronchoconstriction in the dog

Compound: COc1ccc(CCC(C)NCC(O)c2ccc(O)c([S+](C)[O-])c2)cc1 (stereo not drawn) [Example 5D, 4-hydroxy-α-<{[3-(4-methoxyphenyl)-1-methylpropyl]amino}methyl>-3-(methylsulfinyl)benzenemethanol acetate salt]
- Vasodilator activity Dog-Leg Perfusion AED50 (approximate intraarterial dose for 50 reduction in perfusion pressure) (hind limb vasculature; intraarterial, anesthetized dog hind limb, acetate salt): 0.5 mg/kg
- Renal Hypertensive Dog MED10 (minimum repeated oral daily dose for sustained lowering of blood pressure of 10% or greater) (blood pressure): 0.0316 mg/kg
- Rabbit Ear Artery vasodilation (percentage reduction in perfusion pressure from control level) ([2]; 5 × 10^-5 M, 50 µM, acetate salt): 49%
- Antihypertensive activity SH Rat AHD40 (single oral dose required to induce a 40 mm. average reduction in systolic blood pressure) (systolic blood pressure; acetate salt): 3.0 mg/kg
- Dog β-blockade AED50 (approximate intravenous dose for 50% inhibition of isoproterenol-elicited heart rate increase) (β-adrenergic; acetate salt): 0.125 mg/kg
- Local anesthetic activity [4]: equi-active with procaine as a local anesthetic

Compound: COc1ccc(CCC(C)NCC(O)c2ccc(O)c([S+](C)[O-])c2)cc1 (stereo not drawn) [Example 5H, 4-hydroxy-α-<{[3-(4-methoxyphenyl)-1-methylpropyl]amino}methyl>-3-(methylsulfinyl)benzenemethanol hydrochloride]
- Conversion of Ba++-induced Arrhythmia (Ba++-induced arrhythmia; 1 × 10^-5 M/kg.): A
- Conversion of Ouabain-induced Arrhythmia ([1]; 5 × 10^-6 M/kg.): A
- Decrease in papillary muscle force (papillary muscle; 1 mg./ml.): 14%
- Decrease in papillary muscle force (papillary muscle; 10 mcg./ml.): 12%
- Rabbit Ear Artery vasodilation (percentage reduction in perfusion pressure from control level) ([2]; 1 × 10^-4 M, 100 µM, hydrochloride): 64%
- Increase in right atrial force (isolated cat atria; 1 mg./ml.): 52%
- Increase in right atrial rate (isolated cat atria; 1 mg./ml.): 62%
- Increase in right atrial force (isolated cat atria; 10 mcg./ml.): 46%
- Increase in right atrial rate (isolated cat atria; 10 mcg./ml.): 53%
- Cardiotonic activity (in words) (isolated cat atria; one or more of the cardiotonic test procedures): useful cardiotonic activity
- Change in heart rate ([5]; 2 of 3 dogs): no significant change in heart rate
- Maximum increase in cardiac contractile force ([5]; 2 of 3 dogs, I, hydrochloride): 25% and 42%
- Decrease in contractile force ([5]; remaining dog): 30%
- Decrease in heart rate ([5]; remaining dog): 33%

Compound: COc1ccc(CCC(C)NCC(O)c2ccc(O)c([S+](C)[O-])c2)cc1 (stereo not drawn) [Example 5E, 4-hydroxy-α-<{[3-(4-methoxyphenyl)-1-methylpropyl]amino}methyl>-3-(methylsulfinyl)benzenemethanol acetate salt]
- Body weight and gross tissue changes (7-day oral LD50 in rats; animals sacrificed 7 days post-medication): No changes in body weight and no gross tissue changes
- 7-day oral LD50 (7-day oral LD50 in rats; oral, rats, two separate batches, acetate salt, 10080 min): 1940 mg/kg
- LD50 at 168 h (7-day oral LD50 in rats; rat, in vivo, po, rats, two separate batches): 1850 mg/kg
